{"source": "patent US11471459B2", "about": "“Compounds with enhanced anti-tumor effects” (FONDAZIONE PER L'ISTITUTO ONCOLOGICO DI RICERCA (IOR), priority 2018, dated 2022)", "assay_type_in_all_cases": "cell-based", "key": {"SU-DHL-16": {"tested_on": "SU-DHL-16", "assay": "Proliferation MTT assay, 72 h", "details": "Homo sapiens, SU-DHL-16 (GCB-DLBCL), 72 h exposure", "description": "(§1) Thirty-nine cell lines derived from activated B cell-like (ABC) (n=3) and germinal center B Cell (GCB) (n=12) diffuse large B cell lymphoma (DLBCL), mantle cell lymphoma (MCL) (n=9), chronic lymphocytic leukemia (CLL) (n=2), Hodgkin lymphoma (HL) (n=4), cutaneous T cell lymphoma (CTCL) (n=3), peripheral T cell lymphoma (PTCL) (n=1), anaplastic large T cell lymphoma (ALCL) (n=4), acute T cell leukemia (ATCL) (n=1) were cultured according to the recommended conditions. All media were supplemented with fetal bovine serum (10%), Penicillin-Streptomycin-Neomycin (˜5,000 units penicillin, 5 mg streptomycin and 10 mg neomycin/mL, Sigma) and L-glutamine (1%).\n(§2) EG-011 was dissolved in dimethyl sulphoxide (DMSO) to obtain a stock concentration of 10 mM for in vitro experiments. EG-011 was dissolved in 25% hydroxypropyl beta cyclodextrin (HP-β-CD) in water and adjusted at pH 6.0 using NaOH (0.1 N) and HCl (0.1 N) for in vivo experiments. Application volume was 4.5 mL/kg (100 mg in 4.5 mL), and mice received 200 microliters (corresponding to 200 mg/kg) though intra peritoneal i.p. injection, once per day and five days per week.\n(§3) Cells were seeded in 96-well plates (non-tissue culture treated) at a density of 10,000 cells for all cell lines. Each compound was dissolved in dimethyl sulphoxide (DMSO). For treatment of cells, compounds were serially diluted in the appropriate tissue culture medium, at a range of 20 mcM-78 nM following a 1:2 dilution factor and added to cells (in three replicates). Cells were incubated for 72 hours at 37° C., 5% CO2. DMSO alone was added to negative control (untreated) cells. Wells containing medium only were included on each plate and served as blanks for absorbance readings. MTT (Sigma-Aldrich Chemie GmbH, Buchs, Switzerland) was prepared as a 5 mg/ml stock in PBS and filter-sterilized. MTT solution (22 μL) was added to each well and tissue culture plates were incubated at 37° C. for 4 hours. Cells were then lysed with 25% SDS lysis buffer and absorbance was read at 570 nm using an AD340 plate reader (Beckman Coulter International SA, Switzerland). Absorbance values were expressed in percentage of proliferating cells in comparison with control cells (control corresponds to 100%)."}, "KARPAS-299": {"tested_on": "KARPAS-299", "assay": "Proliferation MTT assay, 72 h", "details": "Homo sapiens, KARPAS-299 (T Cell - ALCL), 72 h exposure", "description": "as §1, §2, §3"}, "JEKO1": {"tested_on": "JEKO1", "assay": "Proliferation MTT assay, 72 h", "details": "Homo sapiens, JeKo-1, JEKO1 (MCL), 72 h exposure", "description": "as §1, §2, §3"}, "FARAGE": {"tested_on": "FARAGE", "assay": "Proliferation MTT assay, 72 h", "details": "FARAGE (GCB-DLBCL), 72 h exposure", "description": "as §1, §2, §3"}, "MAC-1": {"tested_on": "MAC-1", "assay": "Proliferation MTT assay, 72 h", "details": "MAC-1 (T Cell - ALCL), 72 h exposure", "description": "as §1, §2, §3"}, "KI-JK": {"tested_on": "KI-JK", "assay": "Proliferation MTT assay, 72 h", "details": "KI-JK (T Cell - ALCL), 72 h exposure", "description": "as §1, §2, §3"}, "MAVER1": {"tested_on": "MAVER1", "assay": "Proliferation MTT assay, 72 h", "details": "Homo sapiens, MAVER1 (MCL), 72 h exposure", "description": "as §1, §2, §3"}, "OCI-LY-3": {"tested_on": "OCI-LY-3", "assay": "Proliferation MTT assay, 72 h", "details": "Homo sapiens, OCI-Ly3, OCI-LY-3 (ABC-DLBCL), 72 h exposure", "description": "as §1, §2, §3"}, "UPN1": {"tested_on": "UPN1", "assay": "Proliferation MTT assay, 72 h", "details": "UPN1 (MCL), 72 h exposure", "description": "as §1, §2, §3"}, "HUT-78": {"tested_on": "HUT-78", "assay": "Proliferation MTT assay, 72 h", "details": "Homo sapiens, HuT78, HUT-78 (T Cell - CTCL), 72 h exposure", "description": "as §1, §2, §3"}, "SU-DHL-8": {"tested_on": "SU-DHL-8", "assay": "Proliferation MTT assay, 72 h", "details": "Homo sapiens, SU-DHL-8 (GCB-DLBCL), 72 h exposure", "description": "as §1, §2, §3"}, "RCK8": {"tested_on": "RCK8", "assay": "Proliferation MTT assay, 72 h", "details": "Homo sapiens, RCK8 (GCB-DLBCL), 72 h exposure", "description": "as §1, §2, §3"}, "MINO": {"tested_on": "MINO", "assay": "Proliferation MTT assay, 72 h", "details": "Homo sapiens, MINO (MCL), 72 h exposure", "description": "as §1, §2, §3"}, "SU-DHL-10": {"tested_on": "SU-DHL-10", "assay": "Proliferation MTT assay, 72 h", "details": "Homo sapiens, SU-DHL10, SU-DHL-10 (GCB-DLBCL), 72 h exposure", "description": "as §1, §2, §3"}, "SP49": {"tested_on": "SP49", "assay": "Proliferation MTT assay, 72 h", "details": "SP49 (MCL), 72 h exposure", "description": "as §1, §2, §3"}, "OCI-LY-7": {"tested_on": "OCI-LY-7", "assay": "Proliferation MTT assay, 72 h", "details": "Homo sapiens, OCI-Ly7, OCI-LY-7 (GCB-DLBCL), 72 h exposure", "description": "as §1, §2, §3"}, "L-428": {"tested_on": "L-428", "assay": "Proliferation MTT assay, 72 h", "details": "Homo sapiens, L-428 (HL), 72 h exposure", "description": "as §1, §2, §3"}, "KM-H2": {"tested_on": "KM-H2", "assay": "Proliferation MTT assay, 72 h", "details": "Homo sapiens, KM-H2 (HL), 72 h exposure", "description": "as §1, §2, §3"}, "SU-DHL-2": {"tested_on": "SU-DHL-2", "assay": "Proliferation MTT assay, 72 h", "details": "Homo sapiens, SU-DHL-2 (ABC-DLBCL), 72 h exposure", "description": "as §1, §2, §3"}, "L-82": {"tested_on": "L-82", "assay": "Proliferation MTT assay, 72 h", "details": "L-82 (T Cell - ALCL), 72 h exposure", "description": "as §1, §2, §3"}, "Z138": {"tested_on": "Z138", "assay": "Proliferation MTT assay, 72 h", "details": "Homo sapiens, Z-138, Z138 (MCL), 72 h exposure", "description": "as §1, §2, §3"}, "[1]": {"tested_on": "T cell lymphomas (CTCL, PTCL, ALCL) cell lines", "assay": "Proliferation MTT assay, median per subtype", "details": "72 h", "description": "as §1, §2, §3\n(§4) Binomial exact 95% confidence intervals (95% C.I.s) were calculated for median percentages. Differences in IC50 values among lymphoma subtypes were calculated using the t-Student test. Statistical significance was defined by P values of 0.05 or less."}, "ABC-DLBCL cell lines": {"tested_on": "ABC-DLBCL cell lines", "assay": "Proliferation MTT assay, median per subtype", "details": "ABC-DLBCL cell lines (n=3), 72 h", "description": "as §1, §2, §3, §4"}, "GCB-DLBCL cell lines": {"tested_on": "GCB-DLBCL cell lines", "assay": "Proliferation MTT assay, median per subtype", "details": "GCB-DLBCL cell lines (n=12), 72 h", "description": "as §1, §2, §3, §4"}, "HL cell lines": {"tested_on": "HL cell lines", "assay": "Proliferation MTT assay, median per subtype", "details": "HL cell lines (n=4), 72 h", "description": "as §1, §2, §3, §4"}, "MCL cell lines": {"tested_on": "MCL cell lines", "assay": "Proliferation MTT assay, median per subtype", "details": "MCL cell lines (n=9), 72 h", "description": "as §1, §2, §3, §4"}}, "data": [{"smiles": "C=CC(=O)N1CCCC(n2c(=O)c3ncccc3n(Cc3ccc(Oc4ccccc4)cc3)c2=O)C1", "note": "(centres unmarked) [EG-011, 1-[(4-phenoxyphenyl)methyl]-3-(1-prop-2-enoyl-3-piperidyl)pyrido[3,2-d]pyrimidine-2,4-dione]", "values": [{"measurement": "IC50", "setting": "SU-DHL-16", "value": 1.5, "unit": "µM"}, {"measurement": "IC50", "setting": "KARPAS-299", "value": 20, "unit": "µM"}, {"measurement": "IC50", "setting": "JEKO1", "value": 4, "unit": "µM"}, {"measurement": "IC50", "setting": "FARAGE", "value": 2, "unit": "µM"}, {"measurement": "IC50", "setting": "MAC-1", "value": 0.15, "unit": "µM"}, {"measurement": "IC50", "setting": "KI-JK", "value": 20, "unit": "µM"}, {"measurement": "IC50", "setting": "MAVER1", "value": 20, "unit": "µM"}, {"measurement": "IC50", "setting": "OCI-LY-3", "value": 10, "unit": "µM"}, {"measurement": "IC50", "setting": "UPN1", "value": 0.12, "unit": "µM"}, {"measurement": "IC50", "setting": "HUT-78", "value": 1.5, "unit": "µM"}, {"measurement": "IC50", "setting": "SU-DHL-8", "value": 0.3, "unit": "µM"}, {"measurement": "IC50", "setting": "RCK8", "value": 10, "unit": "µM"}, {"measurement": "IC50", "setting": "MINO", "value": 0.1, "unit": "µM"}, {"measurement": "IC50", "setting": "SU-DHL-10", "value": 0.3, "unit": "µM"}, {"measurement": "IC50", "setting": "SP49", "value": 8, "unit": "µM"}, {"measurement": "IC50", "setting": "OCI-LY-7", "value": 5, "unit": "µM"}, {"measurement": "IC50", "setting": "L-428", "value": 20, "unit": "µM"}, {"measurement": "IC50", "setting": "KM-H2", "value": 2.5, "unit": "µM"}, {"measurement": "IC50", "setting": "SU-DHL-2", "value": 20, "unit": "µM"}, {"measurement": "IC50", "setting": "L-82", "value": 2, "unit": "µM"}, {"measurement": "IC50", "setting": "Z138", "value": 20, "unit": "µM"}, {"measurement": "IC50", "setting": "[1]", "value": 2.5, "unit": "µM"}, {"measurement": "IC50", "setting": "ABC-DLBCL cell lines", "value": 10, "unit": "µM"}, {"measurement": "IC50", "setting": "GCB-DLBCL cell lines", "value": 0.55, "unit": "µM"}, {"measurement": "IC50", "setting": "HL cell lines", "value": 13.5, "unit": "µM"}, {"measurement": "IC50", "setting": "MCL cell lines", "value": 1, "unit": "µM"}]}]}
